Source: PMC9814838, “The orphan nuclear receptor Nurr1 is responsive to non-steroidal anti-inflammatory drugs” (Communications Chemistry, 2020)
Where “and” joins values, the source holds several entries; their conditions need not be identical. Identical values can stand only once. Entries after “also recorded” stand apart in the source; their conditions may differ.

Columns and labels:
Nurr1 = molecular target: T1, Nurr1 (Homo sapiens, UniProt P43354); assay: Gal4-Nurr1 hybrid reporter gene assay in HEK293T cells; format: cell-based; conditions: for Nurr1 activity 10μM (mean fold activation) / Nurr1 activity 30μM (mean fold activation): primary screen, n ≥ 2, ^# not significant vs VP16 control; for Gal4-Nurr1 maximum/minimum activation: vs 0.1% DMSO; for Nurr1-dependent reporter activity in primary screen (fold activation): 10 or 30 µM
T1 construct: Nurr1 (uniprot entry: hNURR1–P43354, residues 360–598); expressed in transfected cells; host or cells: HEK293T

Nur77 = molecular target: T2, Nur77 (Homo sapiens, UniProt P22736); assay: Gal4-Nur77 hybrid reporter gene assay in HEK293T cells; format: cell-based; conditions: for Nur77 activity 10μM (mean fold activation) / Nur77 activity 30μM (mean fold activation): primary screen, n ≥ 2, ^# not significant vs VP16 control; for Nur77 min./max. activation: compared to 0.1% DMSO
T2 construct: Nur77 (uniprot entry: hNUR77–P22736, residues 358–598); expressed in transfected cells; host or cells: HEK293T

NOR1 = molecular target: T3, NOR1 (Homo sapiens, UniProt Q92570); assay: Gal4-NOR1 hybrid reporter gene assay in HEK293T cells; format: cell-based; conditions: for Nor1 activity 10μM (mean fold activation) / Nor1 activity 30μM (mean fold activation): primary screen, n ≥ 2, ^# not significant vs VP16 control; for NOR1 min./max. activation: compared to 0.1% DMSO
T3 construct: NOR1 (isoform alpha; uniprot entry: hNOR1–Q92570-1, residues 393–626); expressed in transfected cells; host or cells: HEK293T
T3 sequence (Q92570 393-626): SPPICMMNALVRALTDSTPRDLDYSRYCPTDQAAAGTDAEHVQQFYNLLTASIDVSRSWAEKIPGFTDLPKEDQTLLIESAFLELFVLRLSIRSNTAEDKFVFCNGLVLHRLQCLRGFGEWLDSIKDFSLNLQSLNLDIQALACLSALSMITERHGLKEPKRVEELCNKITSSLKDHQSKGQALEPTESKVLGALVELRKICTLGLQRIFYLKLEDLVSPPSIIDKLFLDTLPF

firefly luciferase = firefly luciferase (Photinus pyralis, UniProt P08659); assay: Firefly luciferase inhibition; conditions: compounds marked with * in Fig. 2a
PPAR; RXRα; RARα = assay: Selectivity profiling in Gal4 hybrid reporter gene assays outside the NR4A family; format: cell-based, human; conditions: rel. activation vs reference agonists at 1 µM; n ≥ 4
NBRE: Nurr1 monomer = molecular target: T4, NBRE: Nurr1 monomer (Homo sapiens, UniProt P43354); assay: Full-length Nurr1 reporter gene assay on NBRE response element; format: cell-based
T4 construct: the activity of full-length human Nurr1 in cellular settings; host or cells: HEK293T

NurRE: Nurr1 homodimer = molecular target: T5, NurRE: Nurr1 homodimer (Homo sapiens, UniProt P43354); assay: Full-length Nurr1 reporter gene assay on NurRE response element; format: cell-based; conditions: mean ± SD; for IC50: full-length human Nurr1, HEK293T
T5 construct: the activity of full-length human Nurr1 in cellular settings; host or cells: HEK293T

[1] = molecular target: T6, DR5: Nurr1–RXRα heterodimer (Homo sapiens, UniProt P43354); assay: Full-length Nurr1 reporter gene assay on DR5 response element; format: cell-based; conditions: mean ± SD; for IC50: full-length human Nurr1 and RXRα overexpressed, HEK293T
T6 construct: the activity of full-length human Nurr1 in cellular settings; host or cells: HEK293T

Nurr1 LBD homodimer = molecular target: T7, Nurr1 LBD homodimer (Homo sapiens, UniProt P43354); assay: Nurr1 homodimerization HTRF (GFP-Nurr1 LBD vs Tb-labeled Nurr1 LBD); format: biochemical; conditions: cell-free; ligand 100 µM
T7 construct: Nurr1 (uniprot entry: P43354-1, residues 364–598); MBP-Asn10 linker (N, cleaved yes); His8-Tag (N, cleaved yes); His10-Tag (N, cleaved yes); made in house; host or cells: E. coli T7 express (with pGro7)
Protocol: Strength and modulation of the formation of the heterodimer composed of the LBDs of Nurr1 and RXRα was investigated by titration of GFP-RXRα LBD against a fixed concentration of Nurr1 LBD. Assay solutions were prepared in HTRF assay buffer supplemented with 0.1% (w/v) CHAPS as well as 1% DMSO with test compounds at 100 µM or DMSO alone as negative control. […] Free GFP was added to keep the total GFP content stable at 4 µM throughout the entire series in order to suppress artefacts from changes in degree of diffusion enhanced FRET. Samples were equilibrated at RT for 2 h before FI520 and FI620 were recorded after excitation at 340 nm, and the HTRF signal was calculated as described above.

Nurr1–NCoR-1 interaction = molecular target: T8, Nurr1–NCoR-1 interaction (Homo sapiens, UniProt P43354); assay: Nurr1–NCoR-1 interaction HTRF (GFP-Nurr1 LBD titrated against Tb-labeled NCoR-1); format: biochemical; conditions: cell-free; ligand fixed at 100 µM
T8 construct: Nurr1 (uniprot entry: P43354-1, residues 364–598); His10-Tag (N, cleaved yes); made in house; host or cells: E. coli T7 express (with pGro7)
Protocol: Since ligand concentration was fixed in this setting, interference with the HTRF system is less prone to generate potential artifacts.
To maintain a constant GFP concentration, free GFP protein was added to the dilution series. The experiments were performed in HTRF assay buffer (150 mM KF, 25 mM HEPES pH 7.5 (KOH), 5% (w/v) Glycerol, supplemented with 0.1% (w/v) CHAPS and 5 mM DTT) with 1% DMSO in an assay volume of 20 µl. After 1 h incubation at RT, fluorescence intensities after excitation at 340 nm were recorded at 520 nm for GFP acceptor fluorescence and 620 nm for Tb-SA donor fluorescence and the HTRF signal was calculated as described above.

Gal4-VP16 = molecular target: T9, Gal4-VP16 (Human herpesvirus 1, UniProt P06492); format: cell-based; conditions: n ≥ 4
T9 construct: host or cells: HEK293T

T7 sequence (P43354 364-598): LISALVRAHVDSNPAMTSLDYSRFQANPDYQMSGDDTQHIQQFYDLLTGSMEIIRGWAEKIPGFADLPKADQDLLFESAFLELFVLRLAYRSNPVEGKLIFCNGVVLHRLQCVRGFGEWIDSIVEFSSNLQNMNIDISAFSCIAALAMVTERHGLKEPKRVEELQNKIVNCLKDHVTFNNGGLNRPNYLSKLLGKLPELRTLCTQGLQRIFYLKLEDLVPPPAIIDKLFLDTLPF
T8 sequence (P43354 364-598): as above
T2 sequence (P22736 358-598): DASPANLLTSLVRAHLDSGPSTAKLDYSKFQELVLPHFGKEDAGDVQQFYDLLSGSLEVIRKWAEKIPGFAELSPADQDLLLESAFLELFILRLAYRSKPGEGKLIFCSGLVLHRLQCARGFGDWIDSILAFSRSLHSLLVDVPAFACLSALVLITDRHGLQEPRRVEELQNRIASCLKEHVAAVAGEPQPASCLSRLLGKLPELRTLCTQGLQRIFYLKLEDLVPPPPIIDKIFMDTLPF
T4 sequence (P43354 whole entry): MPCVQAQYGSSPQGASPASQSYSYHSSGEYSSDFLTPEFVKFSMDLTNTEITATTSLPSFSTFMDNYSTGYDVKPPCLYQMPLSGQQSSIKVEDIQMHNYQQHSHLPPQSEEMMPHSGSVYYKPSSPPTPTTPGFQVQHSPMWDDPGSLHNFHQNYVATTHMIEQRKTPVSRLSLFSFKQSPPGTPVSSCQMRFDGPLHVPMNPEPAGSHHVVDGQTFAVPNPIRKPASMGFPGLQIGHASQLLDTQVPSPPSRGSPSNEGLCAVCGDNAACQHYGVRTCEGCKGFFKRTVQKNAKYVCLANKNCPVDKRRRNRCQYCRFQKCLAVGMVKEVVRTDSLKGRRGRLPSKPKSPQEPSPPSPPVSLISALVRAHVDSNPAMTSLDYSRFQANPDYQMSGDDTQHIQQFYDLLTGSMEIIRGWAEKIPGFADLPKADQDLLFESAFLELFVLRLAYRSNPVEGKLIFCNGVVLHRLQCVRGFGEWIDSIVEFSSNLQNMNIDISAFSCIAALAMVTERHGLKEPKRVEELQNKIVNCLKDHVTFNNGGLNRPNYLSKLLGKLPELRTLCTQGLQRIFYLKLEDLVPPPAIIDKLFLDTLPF
T6 sequence (P43354 whole entry, one chain of several): as the sequence (P43354 whole entry) above
T5 sequence (P43354 whole entry): as above
T1 sequence (P43354 360-598): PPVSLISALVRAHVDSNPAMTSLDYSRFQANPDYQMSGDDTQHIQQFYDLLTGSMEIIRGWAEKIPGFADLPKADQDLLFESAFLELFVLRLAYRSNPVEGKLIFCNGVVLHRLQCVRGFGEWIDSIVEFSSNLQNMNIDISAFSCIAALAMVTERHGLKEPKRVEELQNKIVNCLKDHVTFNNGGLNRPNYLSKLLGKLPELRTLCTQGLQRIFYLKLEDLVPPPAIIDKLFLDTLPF
firefly luciferase, sequence (P08659 whole entry, the tested form may be a part): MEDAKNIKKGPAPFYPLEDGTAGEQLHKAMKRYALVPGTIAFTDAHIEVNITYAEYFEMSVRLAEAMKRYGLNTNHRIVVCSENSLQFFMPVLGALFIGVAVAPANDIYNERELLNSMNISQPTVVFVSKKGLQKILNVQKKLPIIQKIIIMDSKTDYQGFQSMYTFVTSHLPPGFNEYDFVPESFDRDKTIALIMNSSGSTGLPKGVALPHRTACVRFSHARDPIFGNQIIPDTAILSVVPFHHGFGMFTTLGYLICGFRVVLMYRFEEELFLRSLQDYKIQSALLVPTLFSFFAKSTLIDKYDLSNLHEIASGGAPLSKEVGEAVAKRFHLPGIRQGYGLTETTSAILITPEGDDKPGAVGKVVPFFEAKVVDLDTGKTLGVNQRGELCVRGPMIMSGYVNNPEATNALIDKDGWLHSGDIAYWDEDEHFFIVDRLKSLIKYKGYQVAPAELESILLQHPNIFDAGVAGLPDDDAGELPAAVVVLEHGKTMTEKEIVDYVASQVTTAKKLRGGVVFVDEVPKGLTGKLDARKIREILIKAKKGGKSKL

Row | Structure (SMILES) | Nurr1 activity 10μM (mean fold activation) (Nurr1) [fold] | Nurr1 activity 30μM (mean fold activation) (Nurr1) | EC50 (Nurr1; HEK293T, mean ± SD, n≥3) [µM] | Gal4-Nurr1 maximum/minimum activation (Nurr1; mean ± SD) [fold] | Nur77 activity 10μM (mean fold activation) (Nur77) [fold] | Nur77 activity 30μM (mean fold activation) (Nur77) | Nor1 activity 10μM (mean fold activation) (NOR1) [fold] | Nor1 activity 30μM (mean fold activation) (NOR1) | Inhibition of firefly luciferase (firefly luciferase) | Selectivity over PPAR, RXRα, RARα (PPAR; RXRα; RARα) | Nurr1-dependent reporter activity in primary screen (fold activation) (Nurr1) [fold] | Nur77 min./max. activation (Nur77; mean ± SD) | NOR1 min./max. activation (NOR1; mean ± SD) | IC50 (NurRE: Nurr1 homodimer) [µM] | NurRE: Nurr1 homodimer maximum/minimum activation (NurRE: Nurr1 homodimer) [fold] | IC50 [1] [µM] | DR5: Nurr1–RXRα heterodimer maximum/minimum activation [1] [fold] | Homodimerization (effect of ligand) (Nurr1 LBD homodimer) | NCoR-1 affinity (effect of ligand) (Nurr1–NCoR-1 interaction) | Control experiments on Gal4-VP16 (non-specific reporter effects) (Gal4-VP16) | further results
1 | O=C(O)COC(=O)Cc1ccccc1Nc1c(Cl)cccc1Cl [aceclofenac] | 0.85 | 0.46 fold | 2.5 ± 0.1 | 1.99 ± 0.07 | 0.84 | 0.60 fold | 0.94 | 0.49 fold | inhibit firefly luciferase | confirmed selectivity |  |  |  |  |  |  |  |  |  |  | 
2 | Cc1ccc(Nc2c(F)cccc2Cl)c(CC(=O)O)c1 [lumiracoxib] | 0.90 | 0.76 fold |  |  | 0.76 | 0.66 fold | 0.86 | 0.79 fold | inhibit firefly luciferase |  |  |  |  |  |  |  |  |  |  |  | 
3 | Cc1ccc(Cl)c(Nc2ccccc2C(=O)O)c1Cl [MFA, Meclofenamic acid] | 3.60 | toxic | 4.7 | 3.52 ± 0.05 | 3.01 | toxic | 3.92 | toxic |  | confirmed selectivity | > 1.5 | 3.3 ± 0.4 | 5.5 ± 0.6 | 5.2 | 0.70 ± 0.01 | 10.7 | 0.79 ± 0.01 | entirely prevented homodimerization; also recorded: Decreases dimerization | markedly reduced affinity; also recorded: Decreases affinity | clearly Nurr1 mediated | Gal4-Nurr1 maximum/minimum activation (Nurr1; mean ± SD, listed as meclofenamic acid): 3.52 ± 0.05 fold and 3.52 ± 0.07 fold; EC50 (Nur77; HEK293T, mean ± SD, n≥3): 3.9 ± 0.7 µM; EC50 (NOR1; HEK293T, mean ± SD, n≥3): 7.9 ± 0.8 µM; NBRE: Nurr1 monomer activity in words (NBRE: Nurr1 monomer; full-length human Nurr1, HEK293T): Inactive
4 | Cc1onc(-c2ccccc2)c1-c1ccc(S(N)(=O)=O)cc1 [valdecoxib] | 0.79 | 0.54 fold |  | 0.52 ± 0.04 | 0.90 | 0.82 fold | 1.05 | 0.76 fold |  | confirmed selectivity | < 0.80 |  |  |  |  |  |  |  |  | no non-specific reporter suppression | IC50 (Nurr1; HEK293T, mean ± SD, n≥3): 13 ± 3 µM
5 | CCC(=O)NS(=O)(=O)c1ccc(-c2c(-c3ccccc3)noc2C)cc1 [parecoxib] |  |  |  |  |  |  |  |  |  |  |  | 0.1 ± 0.0 | 0.22 ± 0.05 | 21 | 0.4 ± 0.1 | 20 | 0.5 ± 0.1 | diminished Nurr1 dimer formation | Decreases affinity | no non-specific reporter suppression | IC50 (Nur77; HEK293T, mean ± SD, n≥3): 23.7 ± 0.2 µM; IC50 (NOR1; HEK293T, mean ± SD, n≥3, read-out: NOR1 IC50): 25 ± 4 µM; IC50 (NBRE: Nurr1 monomer; full-length human Nurr1, HEK293T, mean ± SD): 15 µM; NBRE: Nurr1 monomer maximum/minimum activation (NBRE: Nurr1 monomer; mean ± SD): 0.41 ± 0.05 fold
6 | CC(C(=O)O)c1ccc(C(=O)c2ccccc2)s1 (stereo not drawn) [tiaprofenic acid] | 1.52 | 1.46 fold |  |  | 1.35 | 1.38 fold | 1.37 | 1.42 fold |  |  | > 1.5 |  |  |  |  |  |  |  |  | non-specific activity | 
